Measurements published in patent publication US11198761B2, “Biodegradable polyionenes” (AGENCY FOR SCIENCE, TECHNOLOGY AND RESEARCH, priority 2017, dated 2021).

Experiments:
[1] = system: K. pneumoniae 8637; experiment: Efficacy (ED50/ED95) in K. pneumoniae 8637-induced pneumonia; type: in vivo; conditions: immunosuppressed mice, intraperitoneally once daily for 3 days, survival over 5 days, BLISS method
Procedure: ICR mice (female, 7 weeks old, 24-26 mg) were used for the in vivo studies. Immunosuppression was induced by intraperitoneal injection of 200 mg/Kg cyclophosphamide (Hengrui Corp, Jiangsu Province, P. R. China) 4 days prior to infection. Mice were anesthetized by intra-peritoneal injection of 1% pentobarbital (40 mg/kg, Sigma).
The immunosuppression of mice was induced as described above. Overnight cultures of K. pneumoniae 8637 were harvested and suspended in PBS. Before instillation with K. pneumoniae 8637, the mice were anesthetized using an intraperitoneal injection with 1% pentobarbital (40 mg/kg). Each of the immunosuppressed mice was infected intranasally with 0.03 mL of the bacterial suspension at designated doses (i.e. 1×10^9, 1.5×10^9, 2.3×10^9, 3.5×10^9, 5.3×10^9, 8.0×10^9 CFU/ml, four mice per group). The minimum lethal dose was defined as the lowest dose, which was sufficient to cause 100% mortality. It was determined from the survival rate of mice at 5 days post-infection by the BLISS method.
The number of surviving mice in each group was recorded for 5 days to assess ED50 by the BLISS method.

[2] = system: K. pneumoniae 8637; experiment: Survival of K. pneumoniae 8637-infected mice; type: in vivo; conditions: 2.0 mg/kg intraperitoneally once daily for 3 days, five days, n=10
Procedure: ICR mice (female, 7 weeks old, […]) were used for the in vivo studies. Immunosuppression was induced by intraperitoneal injection of 200 mg/Kg cyclophosphamide (Hengrui Corp, Jiangsu Province, P. R. China) 4 days prior to infection. Mice were anesthetized by intra-peritoneal injection of 1% pentobarbital (40 mg/kg, Sigma).
To investigate the in vivo antibacterial efficacy of P-1a-1 (6037B), a pneumonia mouse model was established. The immunosuppression of mice was induced as described above. Overnight cultures of K. pneumoniae 8637 were harvested and suspended in PBS. Before instillation with K. pneumoniae 8637, the mice were anesthetized using an intraperitoneal injection with 1% pentobarbital (40 mg/kg). […] It was determined from the survival rate of mice at 5 days post-infection by the BLISS method.
To further determine the in vivo therapeutic efficacy of P-1a-1 (6037B), survival of the K. pneumoniae 8637-infected mice was monitored with and without treatment. […] After being anesthetized, each of the immunosuppressed mice was inoculated intranasally with 0.03 mL of bacterial suspension at the minimum lethal dose determined above. […] The mice were monitored for a period of five days, and the number of surviving mice in each group was recorded. […]

## C[C@@H](O)[C@H]1C(=O)N2C(C(=O)O)=C(SCCN=CN)C[C@H]12 [imipenem]
[1]; Klebsiella pneumoniae, 8637, ip
  ED50: 2.75 mg/kg
[1]
  ED95: 20.0 mg/kg
[2]
  survival: 60%
